From patent US20110105389A1 (priority 2009, published 2011)
Like-named read-outs stand apart in the source and are kept apart here.

Experiments:
[1] = molecular target: T1, human ghrelin receptor (GRLN, growth hormone secretagogue receptor, hGHS-R1a) (Homo sapiens, UniProt Q92847); assay: Competitive radioligand binding assay (ghrelin receptor), Method B1
T1 construct: purchased PerkinElmer BioSignal #RBHGHSM, lot#1887; host or cells: HEK-293 cells, stably transfected (membranes)
Procedure, shortened: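 Membranes incubated with compound 30 min at rt in 25 mM Hepes pH 7.4, 1 mM CaCl2, 5 mM MgCl2, 2.5 mM EDTA, 0.4% BSA, max 0.1% DMSO; filtered on PEI-soaked GF/C, washed with cold Tris, scintillation counted. Curves fitted by variable-slope non-linear regression.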

[2] = molecular target: T2, GHS-R1a receptor (HEK293 cells expressing GHS-R1a receptor) (Homo sapiens, UniProt Q92847); assay: Fluorescence functional assay (ghrelin receptor), Method B2, agonist and antagonist mode; assay type: cell-based; conditions: functional activity as an antagonist at the ghrelin receptor, Methods B2 and B3
T2 construct: host or cells: HEK293
T2 sequence (Q92847 whole entry): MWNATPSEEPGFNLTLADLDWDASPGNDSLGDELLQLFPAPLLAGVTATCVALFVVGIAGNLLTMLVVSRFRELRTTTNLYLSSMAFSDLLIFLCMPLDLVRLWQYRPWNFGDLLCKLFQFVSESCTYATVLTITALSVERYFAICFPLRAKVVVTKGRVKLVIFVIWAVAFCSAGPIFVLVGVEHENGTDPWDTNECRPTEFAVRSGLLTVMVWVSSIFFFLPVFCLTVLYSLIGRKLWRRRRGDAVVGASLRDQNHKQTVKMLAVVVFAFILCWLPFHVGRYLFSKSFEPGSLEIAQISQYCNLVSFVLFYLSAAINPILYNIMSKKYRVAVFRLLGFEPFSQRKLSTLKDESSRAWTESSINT
Procedure, shortened: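 Calcium flux read by ImageTrak epifluorescence in HEK293 cells stably expressing GHS-R1a, loaded 1 h at 37 °C with Calcium-3 dye; buffer HBSS/20 mM Hepes, pH 7.4, with probenecid and BSA. Agonists injected after 10 s baseline, read 50 s more; antagonists 3 min. Sigmoidal fits gave EC50 or IC50.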

[3] = tested on: rat stomach fundus strips; assay: Ex-vivo potency evaluation on the rat stomach fundus (inhibition of ghrelin-induced contractility), Method B10; conditions: EFS
Method: B10. Ex-vivo Potency Evaluation on the Rat Stomach Fundus
Fundus strips (approximately 0.4×1 cm) were cut from the stomach of adult male Wistar rats parallel to the circular muscle fibers. They were placed between two platinum ring electrodes, 1 cm apart (Radnoti, ADlnstruments, USA) in 10 ml tissue baths containing Krebs solution bubbled with 5% CO2 in O2 and maintained at 37° C. Tissues were suspended under 1.5 g resting tension. Changes of tension were measured isometrically with force transducers and recorded with a PowerLab 8/30 data acquisition system (ADlnstruments, USA). Tissues were allowed to equilibrate for 60 min during which time bath solutions were changed every 15 min.
EFS was achieved by applying 0.5 ms pulses, 5 Hz frequency, at a maximally effective voltage of 70 V. EFS was applied for 30 sec at 3 min intervals for a 30 min initial period. This initial period was separated by a […] interval with wash out of the bath solution. Then, a second period of stimulation was started. […] Responses to the agents were measured and expressed as % of the mean of three or four pre-drug responses to EFS. All compounds were dissolved at 1 mM in distilled water or MeOH, as stock solutions.
IC50 values for the inhibition of ghrelin-induced contractility by representative compounds of the invention are presented in Table 7.

[4] = Metabolic stability in human liver microsomes, Method B8; assay type: in vitro ADME; conditions: human liver microsomes 0.8 mg/mL, 5 μM compound, 37° C.
Source text: B8. Metabolic Stability in Human Liver Microsomes
The liver is the primary site for phase I (oxidation) and phase II (glucuronidation) enzymatic activity responsible for xenobiotic metabolism. Human liver microsomes are used as in vitro screen of metabolic activity for candidate drugs. Similar studies can be run with microsomes from other species, such as those used for in vivo studies, to determine any significant species differences in the stability profile. The aim of this study was to measure the broad-spectrum metabolic stability of representative compounds of the invention. The key aspects of the experimental design are summarized below: • Human liver microsomes (mixed pool of 15 male and female donors) were purchased from In Vitro Technologies (Baltimore, Md.). • Microsomes characterized for phase I (Cyp2A6, 2D6, 2E1, 1A2, 2C19, 3A4, 4A) and phase II (glucuronidation) enzymatic activity. • Assays are performed using a final concentration of 0.8 mg/mL of microsomes in 100 mM potassium phosphate buffer (1.5 mM NADPH, 8 mM MgCl2, pH 7.4, 37° C.). • Compounds are tested in duplicate samples at a single concentration of 5 μM (0.05% DMSO). • Test articles are incubated with the microsomes at 37° C.

[5] = molecular target: T3, CYP2D6 (Homo sapiens, UniProt P10635); assay: biochemical
T3 sequence (P10635 whole entry): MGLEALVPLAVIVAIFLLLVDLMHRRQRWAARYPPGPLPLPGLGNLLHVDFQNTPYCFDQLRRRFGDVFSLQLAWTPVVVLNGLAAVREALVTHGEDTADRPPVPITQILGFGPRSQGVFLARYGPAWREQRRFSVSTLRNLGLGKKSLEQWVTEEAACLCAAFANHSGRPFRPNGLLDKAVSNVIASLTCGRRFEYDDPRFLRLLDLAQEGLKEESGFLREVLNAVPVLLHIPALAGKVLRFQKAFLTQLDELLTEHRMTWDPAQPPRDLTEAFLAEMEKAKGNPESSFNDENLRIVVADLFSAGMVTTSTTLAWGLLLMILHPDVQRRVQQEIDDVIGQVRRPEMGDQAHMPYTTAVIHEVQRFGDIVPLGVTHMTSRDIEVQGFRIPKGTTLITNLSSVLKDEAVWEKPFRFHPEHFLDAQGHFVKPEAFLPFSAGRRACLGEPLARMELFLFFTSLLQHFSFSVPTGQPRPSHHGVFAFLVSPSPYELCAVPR

[6] = molecular target: T4, CYP3A4 (Homo sapiens, UniProt P08684); assay: biochemical
T4 sequence (P08684 whole entry): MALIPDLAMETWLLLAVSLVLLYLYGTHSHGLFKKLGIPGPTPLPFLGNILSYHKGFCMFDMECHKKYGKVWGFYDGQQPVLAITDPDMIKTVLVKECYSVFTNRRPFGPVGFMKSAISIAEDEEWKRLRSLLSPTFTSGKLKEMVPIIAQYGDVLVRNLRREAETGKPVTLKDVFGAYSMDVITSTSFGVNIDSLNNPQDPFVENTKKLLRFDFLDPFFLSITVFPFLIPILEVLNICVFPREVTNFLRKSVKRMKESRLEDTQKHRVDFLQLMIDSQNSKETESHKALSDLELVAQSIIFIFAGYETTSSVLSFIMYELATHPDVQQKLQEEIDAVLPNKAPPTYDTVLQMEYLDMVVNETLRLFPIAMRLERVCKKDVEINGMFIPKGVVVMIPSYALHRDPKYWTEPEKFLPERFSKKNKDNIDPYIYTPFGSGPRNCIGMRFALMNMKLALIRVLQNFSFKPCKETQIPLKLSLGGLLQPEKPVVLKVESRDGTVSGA

[7] = molecular target: T3, CYP2D6; assay: Cytochrome P450 inhibition, Method B6; conditions: read-out: IC50 CYP 2D6; Table 4b; dextromethorphan used as substrate
[8] = molecular target: T4, CYP3A4; assay: Cytochrome P450 inhibition, Method B6 (two substrates); conditions: read-out: IC50 CYP 3A4; Table 4b; midazolam used as substrate
[9] = molecular target: T5, ghrelin receptor (HEK-GHSR1 stable cells) (Homo sapiens, UniProt Q92847); assay: Ghrelin receptor inverse agonist assay (HTRF IP-one), Method B4; assay type: cell-based; conditions: inverse agonist at the ghrelin receptor, Method B4
T5 construct: expressed in transfected cells
T5 sequence (Q92847 whole entry): as the sequence (Q92847 whole entry) above
Procedure, shortened: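 HEK cells stably expressing GHSR1, seeded at 100 000 cells/well overnight, exposed to compound for 30 min at 37° C. Cells then lysed and IP1 accumulation measured by HTRF (d2 plus anti-IP1 cryptate, 1 h at room temp). Wells lacking d2 served as negative control.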

[10] = Plasma protein binding (equilibrium dialysis), Method B5; assay type: in vitro ADME; conditions: 60 min at 37° C., typically 10 μM
Source text: B5. Plasma Protein Binding
The pharmacokinetic and pharmacodynamic properties of drugs are largely a function of the reversible binding of drugs to plasma or serum proteins such as albumin and α1-acid glycoprotein. In general, only unbound drug is available for diffusion or transport across cell membranes, and for interaction at the pharmacological target. On the other hand, drugs with low plasma protein binding generally have large volumes of distribution and rapid clearance since only unbound drug is available for glomerular filtration and, in some cases, hepatic clearance. Thus, the extent of plasma protein binding can influence efficacy, distribution and elimination. The ideal range for plasma protein binding is in the range of 87-98% for most drug products.
Protein binding studies were performed using human plasma. Briefly, 96-well microplates were used to incubate various concentrations of the test article for 60 min at 37° C. A concentration of 10 μM was a typical selection to be employed in this study. Bound and unbound fractions are separated by equilibrium dialysis, where the concentration remaining in the unbound fraction is quantified by LC-MS or LC-MS-MS analysis. […].

[11] = Pharmacokinetic analysis (intravenous and oral), Method B9; assay type: in vivo; conditions: Table 10b; 2 mg/mL intravenous typically employed
Source text: B9. Pharmacokinetic Analysis
The pharmacokinetic (PK) behavior of compounds of the invention and their pharmaceutical compositions can be ascertained by methods well known to those skilled in the art and can be used to investigate the pharmacokinetic parameters (elimination half-life, total plasma clearance, etc.) for intravenous, subcutaneous and oral administration of these substances. (Wilkinson, G. R. “Pharmacokinetics: The Dynamics of Drug Absorption, Distribution, and Elimination” in Goodman & Gilman's The Pharmacological Basis of Therapeutics, Tenth Edition, Hardman, J. G.; Limbird, L. E., Eds., McGraw Hill, Columbus, Ohio, 2001, Chapter 1.) See also U.S. Pat. Nos. 7,476,653; 7,491,695; Intl. Pat. Appl. WO 2008/033328 and U.S. Patent Appl. Publ. 2008/0194672. As an example, compound 1505 has the PK profile below.
The determination of PK parameters for additional representative compounds of the invention is presented in the Examples.
A detailed analysis of the pharmacokinetic profile of representative compounds of the invention was conducted using the procedures outlined in Method B9.
A dose level of 2 mg/mL for intravenous administration and 8 mg/mL for oral administration were typically employed.

[12] = Ghrelin receptor binding activity, Method B1

T1 sequence (Q92847 whole entry): as above

Compound | IC50 [1, 12] [nM] | Antagonist Activity [2] | IC50 [3] [nM] | HLM, metabolic stability in human liver microsomes [4] [μL/min/mg protein] | IC50 [8] [nM] | other results
CCC(C)[C@@H]1NCCOc2ccccc2/C=C/[C@@H](C)NC(=O)[C@@H](Cc2ccccc2)NC(=O)[C@H](C(C)O)N(C)C1=O (stereo partly drawn) [Compound 1315] | 1 to 10 | C (C = 10-100 nM) | 75 | – | – | Ki [1, 12]: 1 to 10 nM
CC(C)[C@@H]1NCCOc2ccccc2/C=C/CNC(=O)[C@@H](Cc2ccccc2)NC(=O)[C@H](C(C)O)N(C)C1=O (stereo partly drawn) [Compound 1319] | – | – | 72 | 26.5 | – | IC50 [1]: 10 to 100 nM; Ki [1]: 1 to 10 nM; IC50 [5]: 19100 nM; IC50 [6]: 8000 nM
CCC(C)[C@@H]1NCCOc2ccccc2/C=C/CNC(=O)[C@@H](Cc2cccc(F)c2)NC(=O)[C@H](C(C)O)N(C)C1=O (stereo partly drawn) [Compound 1326] | – | C (C = 10-100 nM) | – | – | – | IC50 [1]: 10 to 100 nM; Ki [1]: 1 to 10 nM; IC50 [5]: > 5000 nM; IC50 [6]: 2200 nM
CCC(C)[C@@H]1NCCOc2ccccc2/C=C/CNC(=O)[C@@H](Cc2ccc(C(F)(F)F)cc2)NC(=O)[C@H](C(C)O)N(C)C1=O (stereo partly drawn) [Compound 1327] | – | – | – | – | – | IC50 [1]: 10 to 100 nM; Ki [1]: 1 to 10 nM; IC50 [5]: > 25000 nM; IC50 [6]: > 17700 nM
CCC(C)[C@@H]1NCCOc2ccccc2C[C@H](O)CNC(=O)[C@@H](Cc2ccccc2)NC(=O)[C@H](C(C)O)N(C)C1=O (stereo partly drawn) [Compound 1340] | – | – | – | – | – | IC50 [1]: 10 to 100 nM; Ki [1]: 10 to 100 nM; IC50 [5]: 13300 nM; IC50 [6]: 17200 nM
CC(C)[C@@H]1NCCOc2ccccc2/C=C/CNC(=O)[C@@H](Cc2cccc(O)c2)NC(=O)[C@H](C(C)O)N(C)C1=O (stereo partly drawn) [Compound 1350] | – | C (C = 10-100 nM) | – | – | 5700 | IC50 [7]: 7900 nM
CC(C)[C@@H]1NCCOc2ccccc2CC[C@@H](C)NC(=O)[C@@H](Cc2cccc(F)c2)NC(=O)[C@H](C(C)O)N(C)C1=O (stereo partly drawn) [Compound 1364] | – | B (B = 1-10 nM) | 200 | – | – | –
CC(C)[C@@H]1NCCOc2ccccc2CC[C@@H](C)NC(=O)[C@@H]([C@@H](C)c2ccccc2)NC(=O)[C@H](C(C)O)N(C)C1=O (stereo partly drawn) [Compound 1390] | – | C (C = 10-100 nM) | – | 53 | – | IC50 [5]: > 20000 nM; IC50 [6]: 6900 nM
CC(C)[C@@H]1NCCOc2cc(F)ccc2CC[C@@H](C)NC(=O)[C@@H](Cc2ccccc2)NC(=O)[C@H](C(C)O)N(C)C1=O (stereo partly drawn) [Compound 1391] | – | A (A <1 nM) | 65 | 16.6 | – | –
CC(C)[C@@H]1NCCOc2cc(F)ccc2CC[C@@H](C)NC(=O)[C@@H](Cc2cccc(F)c2)NC(=O)[C@H](C(C)O)N(C)C1=O (stereo partly drawn) [Compound 1392] | – | A (A <1 nM) | 4 | 23.6 | – | –
CC(C)[C@@H]1NCCOc2ccccc2CC[C@@H](C)NC(=O)[C@@H](Cc2cccc(Cl)c2)NC(=O)[C@H](C(C)O)N(C)C1=O (stereo partly drawn) [Compound 1400] | – | A (A <1 nM) | 360 | 54.2 | – | –
CC(C)[C@@H]1NCCOc2ccc(F)cc2CC[C@@H](C)NC(=O)[C@@H](Cc2c[nH]c3ccccc23)NC(=O)[C@H](C(C)O)N(C)C1=O (stereo partly drawn) [Compound 1428] | – | – | – | – | 800 | IC50 [7]: 9100 nM
CC(C)[C@@H]1NCCOc2cccc(F)c2CC[C@@H](C)NC(=O)[C@@H](Cc2c[nH]c3ccccc23)NC(=O)[C@H](C(C)O)N(C)C1=O (stereo partly drawn) [Compound 1429] | – | – | – | – | 700 | IC50 [7]: > 20000 nM
CC(C)[C@@H]1NCCOc2ccccc2C#C[C@@H](C)NC(=O)[C@@H](Cc2ccc(F)cc2)NC(=O)[C@H](C(C)O)N(C)C1=O (stereo partly drawn) [Compound 1711] | 1 to 10 | – | – | – | – | IC50 [9]: 10 to 50 nM; Binding (%), Human Plasma Protein Binding [10]: 97.4%
CC(O)[C@H]1C(=O)N[C@H](Cc2ccc(Cl)cc2)C(=O)NC/C=C/c2ccccc2OCCN[C@@H](C2(C)CC2)C(=O)N1C (stereo partly drawn) [Compound 1729] | 1 to 10 | B (B = 1-10 nM) | – | 54.8 | 1900 | IC50 [9]: 50 to 100 nM
CCC(C)C1NCCOc2ccccc2C=CCNC(=O)C(Cc2ccc(Cl)cc2)NC(=O)C(C(C)O)N(C)C1=O (stereo not drawn) [Compound 1730] | 1 to 10 | – | – | 61.9 | 1600 | IC50 [9]: 100 to 500 nM
CC[C@@H]1NCCOc2ccccc2/C=C/CNC(=O)[C@@H](Cc2ccc(Cl)cc2)NC(=O)[C@H](C(C)O)N(C)C1=O (stereo partly drawn) [Compound 1732] | 10 to 100 | – | – | 52.2 | 2900 | IC50 [9]: 100 to 500 nM
CC[C@@H]1C#Cc2ccc(F)cc2OCCN[C@@H](C(C)C)C(=O)N(C)[C@@H](C(C)O)C(=O)N[C@H](Cc2ccccc2)C(=O)N1 (stereo partly drawn) [Compound 1759] | 1 to 10 | – | – | 40.6 | – | IC50 [9]: 50 to 100 nM; Cl [11]: 14 ± 2 mL/min/kg; t1/2 [11]: 1.98 ± 1.68 h
